Results from ChEMBL document CHEMBL1201862, “PubChem BioAssay data set” (2004).
The source made the active and inactive calls.

How the values were obtained:
CAAX prenyl protease 2 = molecular target: T1, CAAX prenyl protease 2 (Saccharomyces cerevisiae S288c, UniProt Q03530); format: biochemical
T1 sequence (Q03530 whole entry): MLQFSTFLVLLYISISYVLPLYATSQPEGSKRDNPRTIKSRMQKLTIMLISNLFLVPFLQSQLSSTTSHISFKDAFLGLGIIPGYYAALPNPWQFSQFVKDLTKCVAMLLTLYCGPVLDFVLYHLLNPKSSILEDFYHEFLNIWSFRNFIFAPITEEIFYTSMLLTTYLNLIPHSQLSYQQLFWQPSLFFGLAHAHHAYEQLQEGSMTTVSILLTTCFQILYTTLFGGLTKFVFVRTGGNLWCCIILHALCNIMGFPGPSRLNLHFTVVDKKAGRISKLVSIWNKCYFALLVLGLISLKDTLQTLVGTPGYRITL

Trypsin = Trypsin (Sus scrofa, UniProt P00761); experiment: trypsin protease activity blockade – biochemical, quenched peptide fluorescence, cherry-pick, selectivity assay for Rce1 protease inhibitor project, dose response (AID 488789)
Trypsin, sequence (P00761 whole entry): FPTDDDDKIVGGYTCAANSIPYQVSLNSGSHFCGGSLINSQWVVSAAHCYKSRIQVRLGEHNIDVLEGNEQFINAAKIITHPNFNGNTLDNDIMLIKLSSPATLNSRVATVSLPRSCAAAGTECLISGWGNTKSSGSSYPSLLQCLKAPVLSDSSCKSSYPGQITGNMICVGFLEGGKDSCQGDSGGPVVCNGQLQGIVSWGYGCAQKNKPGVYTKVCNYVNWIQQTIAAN

[1] = molecular target: Voltage-dependent T-type calcium channel subunit alpha-1H (Homo sapiens, UniProt O95180); format: functional;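 note: channel activity triggered by adding a high calcium stimulation buffer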
Voltage-dependent T-type calcium channel subunit alpha-1H, sequence (O95180 whole entry): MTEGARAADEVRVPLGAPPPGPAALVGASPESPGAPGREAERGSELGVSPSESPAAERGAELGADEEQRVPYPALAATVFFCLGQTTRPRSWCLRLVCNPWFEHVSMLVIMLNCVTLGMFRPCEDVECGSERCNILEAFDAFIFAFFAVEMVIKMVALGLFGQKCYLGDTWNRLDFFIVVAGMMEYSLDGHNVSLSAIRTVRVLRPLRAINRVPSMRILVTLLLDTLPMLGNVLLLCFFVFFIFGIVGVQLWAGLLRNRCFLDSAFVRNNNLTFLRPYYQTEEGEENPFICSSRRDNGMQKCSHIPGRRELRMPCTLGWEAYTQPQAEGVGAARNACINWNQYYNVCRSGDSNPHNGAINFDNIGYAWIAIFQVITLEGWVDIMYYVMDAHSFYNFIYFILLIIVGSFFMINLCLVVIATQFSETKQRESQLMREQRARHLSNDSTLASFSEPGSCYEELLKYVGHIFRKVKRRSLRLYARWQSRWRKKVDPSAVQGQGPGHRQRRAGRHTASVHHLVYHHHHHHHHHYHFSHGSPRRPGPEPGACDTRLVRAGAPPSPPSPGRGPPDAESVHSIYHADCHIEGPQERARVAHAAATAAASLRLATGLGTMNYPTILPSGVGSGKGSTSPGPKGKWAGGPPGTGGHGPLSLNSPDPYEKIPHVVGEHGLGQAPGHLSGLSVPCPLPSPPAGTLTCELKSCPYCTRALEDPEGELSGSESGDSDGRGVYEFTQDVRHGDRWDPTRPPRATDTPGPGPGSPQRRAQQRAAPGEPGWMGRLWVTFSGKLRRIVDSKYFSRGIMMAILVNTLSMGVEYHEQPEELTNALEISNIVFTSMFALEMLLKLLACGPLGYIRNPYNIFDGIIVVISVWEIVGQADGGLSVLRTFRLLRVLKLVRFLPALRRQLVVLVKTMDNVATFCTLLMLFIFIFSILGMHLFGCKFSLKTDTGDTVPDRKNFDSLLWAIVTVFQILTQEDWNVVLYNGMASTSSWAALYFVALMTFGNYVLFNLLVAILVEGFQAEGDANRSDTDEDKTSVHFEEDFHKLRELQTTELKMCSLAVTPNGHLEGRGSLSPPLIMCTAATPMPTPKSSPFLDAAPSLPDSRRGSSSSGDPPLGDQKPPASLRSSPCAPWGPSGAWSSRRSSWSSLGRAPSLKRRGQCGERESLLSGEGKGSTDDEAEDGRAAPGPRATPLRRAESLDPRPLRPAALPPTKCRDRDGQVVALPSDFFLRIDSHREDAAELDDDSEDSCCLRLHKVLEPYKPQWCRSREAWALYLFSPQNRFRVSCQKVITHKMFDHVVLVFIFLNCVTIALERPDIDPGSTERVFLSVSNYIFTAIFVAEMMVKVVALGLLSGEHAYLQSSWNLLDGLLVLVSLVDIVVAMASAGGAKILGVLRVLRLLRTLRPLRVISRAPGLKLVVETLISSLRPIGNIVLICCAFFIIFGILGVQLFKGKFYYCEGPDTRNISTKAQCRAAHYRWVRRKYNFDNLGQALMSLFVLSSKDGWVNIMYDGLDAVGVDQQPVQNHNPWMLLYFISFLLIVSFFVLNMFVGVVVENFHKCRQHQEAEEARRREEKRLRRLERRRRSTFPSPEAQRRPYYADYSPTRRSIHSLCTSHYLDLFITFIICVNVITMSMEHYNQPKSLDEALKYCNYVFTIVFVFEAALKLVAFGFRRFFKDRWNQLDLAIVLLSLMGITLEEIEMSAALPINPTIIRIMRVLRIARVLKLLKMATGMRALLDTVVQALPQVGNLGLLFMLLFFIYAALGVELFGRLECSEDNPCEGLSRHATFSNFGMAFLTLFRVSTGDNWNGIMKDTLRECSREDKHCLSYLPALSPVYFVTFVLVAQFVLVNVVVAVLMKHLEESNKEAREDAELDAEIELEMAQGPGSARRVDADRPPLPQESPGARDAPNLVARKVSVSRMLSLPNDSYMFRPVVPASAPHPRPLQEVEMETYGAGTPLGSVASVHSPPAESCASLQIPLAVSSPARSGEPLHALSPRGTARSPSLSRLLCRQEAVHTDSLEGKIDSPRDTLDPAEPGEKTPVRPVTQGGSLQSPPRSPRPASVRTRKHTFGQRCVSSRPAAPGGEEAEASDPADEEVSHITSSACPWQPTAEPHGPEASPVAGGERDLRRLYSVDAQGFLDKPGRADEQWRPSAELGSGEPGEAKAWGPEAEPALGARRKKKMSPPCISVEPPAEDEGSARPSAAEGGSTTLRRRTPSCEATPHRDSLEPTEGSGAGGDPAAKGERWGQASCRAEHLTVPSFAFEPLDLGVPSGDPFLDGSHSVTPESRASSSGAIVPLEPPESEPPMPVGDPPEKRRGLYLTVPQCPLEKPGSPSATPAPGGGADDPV

[2] = MIN6 cell viability loss – mouse insulinoma, cytotoxicity control, dose response (AID 2122); format: functional;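 note: confirmatory high-throughput counterscreen run to flag cytotoxic compounds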
[3] = decrease of insulin promoter-GFP reporter – imaging, high-content screening, mouse beta cells (AID 1628); format: functional; details: MIN6
[4] = HEK-293T cell viability reduction – luminescence, B-cell screen hits, cytotoxicity control for BCR NF-kB inhibitor project, dose response (AID 489021); format: functional, cell-based;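 note: HEK-293T cells carrying an NF-kB luciferase reporter; cells exposed to compound for about 14 hours before viability readout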
Hexokinase HKDC1 = molecular target: T2, Hexokinase HKDC1 (Homo sapiens, UniProt Q2TB90); experiment: inhibition of HKDC1 glucose phosphorylation – biochemical, W721R variant, dose response (AID 504729); format: functional
T2 sequence (Q2TB90 whole entry): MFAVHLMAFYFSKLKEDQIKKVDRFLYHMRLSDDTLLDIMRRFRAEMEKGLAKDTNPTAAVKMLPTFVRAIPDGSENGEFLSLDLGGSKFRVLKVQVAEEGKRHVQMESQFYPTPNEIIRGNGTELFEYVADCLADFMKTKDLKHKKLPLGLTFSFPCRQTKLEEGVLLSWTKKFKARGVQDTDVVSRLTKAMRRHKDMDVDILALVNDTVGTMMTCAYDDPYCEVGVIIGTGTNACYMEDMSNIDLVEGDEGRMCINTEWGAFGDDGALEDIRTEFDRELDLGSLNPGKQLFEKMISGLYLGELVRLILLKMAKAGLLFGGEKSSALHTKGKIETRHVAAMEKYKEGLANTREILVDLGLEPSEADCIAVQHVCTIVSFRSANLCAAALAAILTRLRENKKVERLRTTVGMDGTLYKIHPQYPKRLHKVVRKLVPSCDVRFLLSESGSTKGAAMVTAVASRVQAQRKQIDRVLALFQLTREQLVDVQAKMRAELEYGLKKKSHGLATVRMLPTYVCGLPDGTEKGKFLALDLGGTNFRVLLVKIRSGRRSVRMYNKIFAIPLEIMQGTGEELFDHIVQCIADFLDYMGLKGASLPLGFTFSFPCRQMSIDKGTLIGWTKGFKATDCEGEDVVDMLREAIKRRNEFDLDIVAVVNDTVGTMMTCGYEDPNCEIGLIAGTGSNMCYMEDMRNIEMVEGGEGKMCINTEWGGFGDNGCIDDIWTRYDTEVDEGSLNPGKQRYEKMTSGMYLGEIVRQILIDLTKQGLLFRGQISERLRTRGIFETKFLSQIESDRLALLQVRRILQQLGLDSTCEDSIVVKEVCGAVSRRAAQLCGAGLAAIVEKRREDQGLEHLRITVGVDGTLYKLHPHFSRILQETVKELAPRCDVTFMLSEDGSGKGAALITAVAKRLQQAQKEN

AC50 (CAAX prenyl protease 2)	AC50 (Trypsin)	EC50 [1]	Compound	also measured
10.7 µM (active)	8.75 µM (active)		O=C(NCCc1cccnc1)c1cc(COc2ccc(F)cc2Cl)on1	
		6.65 µM (active)	c1ccc(C(c2nnnn2Cc2ccco2)N2CCN(c3nc4ccccc4s3)CC2)cc1 (stereo not given)	
		5.63 µM (active)	Cc1ccccc1OCC(=O)N(Cc1nc(-c2ccccc2)no1)C(C)C	

The next lines start with the compound.

Compound	AC50 (CAAX prenyl protease 2)	AC50 (Trypsin)	EC50 [1]	also measured
Cc1cc(C)n2cc(CSCC(=O)O)nc2n1	12.1 µM (active)	12 µM (active)		
N=c1ccn(Cc2ccccc2Cl)cc1				IC50 [2]: 3.42 µM (active); IC50 [3]: 3.37 µM (active); IC50 [4]: > 80 µM (inactive)
CCCCNC(=O)c1sc(=S)n2c1[nH]c(=O)c1ccc(C(=O)NCCc3ccc(OC)c(OC)c3)cc12				IC50 (Hexokinase HKDC1): 35.7 µM (inactive)
